Experimental data from PubChem BioAssay (NCI).
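Where inhibition never reached the appropriate level, the endpoint shown equals the highest concentration tested. Otherwise, values were interpolated linearly from a five-concentration, 48-hour dose response in 96-well plates. GI50 = concentration required for 50% inhibition of growth. TGI: total growth inhibition.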

Columns and labels:
Assay in all cases: inhibition of tumour cell growth, NCI panel, 48 h
MCF7 breast = system: MCF7 breast
SK-MEL-2 melanoma = system: SK-MEL-2 melanoma
SF-295 CNS = system: SF-295 CNS
EKVX NSCLC = system: EKVX NSCLC
NCI-H522 lung = system: NCI-H522 lung
UACC-257 melanoma = system: UACC-257 melanoma
OVCAR-3 ovarian = system: OVCAR-3 ovarian
HOP-62 NSCLC = system: HOP-62 NSCLC
IGROV1 ovarian = system: IGROV1 ovarian
OVCAR-5 ovarian = system: OVCAR-5 ovarian
MALME-3M melanoma = system: MALME-3M melanoma
SNB-75 CNS = system: SNB-75 CNS
786-0 renal = system: 786-0 renal
NCI-H23 lung = system: NCI-H23 lung
SK-OV-3 ovarian = system: SK-OV-3 ovarian
HL-60(TB) leukemia = system: HL-60(TB) leukemia
SK-MEL-5 melanoma = system: SK-MEL-5 melanoma
NCI-H460 lung = system: NCI-H460 lung
HCC-2998 colon = system: HCC-2998 colon
SN12C renal = system: SN12C renal
SK-MEL-28 melanoma = system: SK-MEL-28 melanoma
MDA-MB-231 breast = system: MDA-MB-231 breast
NCI/ADR-RES ovarian = system: NCI/ADR-RES ovarian
HOP-92 NSCLC = system: HOP-92 NSCLC
SNB-19 CNS = system: SNB-19 CNS
T-47D breast = system: T-47D breast
SF-539 CNS = system: SF-539 CNS
RPMI-8226 leukemia = system: RPMI-8226 leukemia
HT29 colon = system: HT29 colon
HCT-15 colon = system: HCT-15 colon
CCRF-CEM leukemia = system: CCRF-CEM leukemia
SR leukemia = system: SR leukemia
NCI-H226 lung = system: NCI-H226 lung
BT-549 breast = system: BT-549 breast
LOX IMVI melanoma = system: LOX IMVI melanoma
KM12 colon = system: KM12 colon
MDA-MB-435 = system: MDA-MB-435
SW-620 colon = system: SW-620 colon
M14 melanoma = system: M14 melanoma
PC-3 prostate = system: PC-3 prostate
MOLT-4 leukemia = system: MOLT-4 leukemia
RXF 393 renal = system: RXF 393 renal
ACHN renal = system: ACHN renal
SF-268 CNS = system: SF-268 CNS
UO-31 renal = system: UO-31 renal
MDA-MB-468 breast = system: MDA-MB-468 breast
TK-10 renal = system: TK-10 renal
OVCAR-8 ovarian = system: OVCAR-8 ovarian
A498 renal = system: A498 renal
U251 CNS = system: U251 CNS
CAKI-1 renal = system: CAKI-1 renal
HS 578T breast = system: HS 578T breast
OVCAR-4 ovarian = system: OVCAR-4 ovarian
UACC-62 melanoma = system: UACC-62 melanoma
DU-145 prostate = system: DU-145 prostate
A549 NSCLC = system: A549 NSCLC
K-562 leukemia = system: K-562 leukemia
COLO 205 colon = system: COLO 205 colon
HCT-116 colon = system: HCT-116 colon

CNS(=O)(=O)N1CCc2c(Br)c3c(c(OC)c2C1CCc1ccccc1)OCO3 (stereo not drawn)
GI50 (MCF7 breast): 16.6 µM | TGI (MCF7 breast): 90.7 µM | GI50 (SK-MEL-2 melanoma): 14.5 µM | TGI (SK-MEL-2 melanoma): 30.7 µM | GI50 (SF-295 CNS): 11.1 µM | TGI (SF-295 CNS): 31.8 µM | GI50 (EKVX NSCLC): 14.1 µM | TGI (EKVX NSCLC): > 100 µM | GI50 (NCI-H522 lung): 13 µM | TGI (NCI-H522 lung): 38.7 µM | GI50 (UACC-257 melanoma): 20.9 µM | TGI (UACC-257 melanoma): 51.5 µM | GI50 (OVCAR-3 ovarian): 13.7 µM | TGI (OVCAR-3 ovarian): 29.9 µM | GI50 (HOP-62 NSCLC): 13.5 µM | TGI (HOP-62 NSCLC): 37.5 µM | GI50 (IGROV1 ovarian): 14.1 µM | TGI (IGROV1 ovarian): 81.6 µM | GI50 (OVCAR-5 ovarian): 14.1 µM | TGI (OVCAR-5 ovarian): 33.8 µM | GI50 (MALME-3M melanoma): 17.8 µM | TGI (MALME-3M melanoma): 34.8 µM | GI50 (SNB-75 CNS): 4.24 µM | TGI (SNB-75 CNS): 34.5 µM | GI50 (786-0 renal): 19.6 µM | TGI (786-0 renal): 62.5 µM | GI50 (NCI-H23 lung): 17 µM | TGI (NCI-H23 lung): 72.4 µM | GI50 (SK-OV-3 ovarian): 20.9 µM | TGI (SK-OV-3 ovarian): 73.6 µM | GI50 (HL-60(TB) leukemia): 22.9 µM | TGI (HL-60(TB) leukemia): 61.9 µM | GI50 (SK-MEL-5 melanoma): 15.4 µM | TGI (SK-MEL-5 melanoma): 28.8 µM | GI50 (NCI-H460 lung): 13.7 µM | TGI (NCI-H460 lung): 30.1 µM | GI50 (HCC-2998 colon): 18.4 µM | TGI (HCC-2998 colon): 75.7 µM | GI50 (SN12C renal): 11.6 µM | TGI (SN12C renal): 24.7 µM | GI50 (SK-MEL-28 melanoma): 15.7 µM | TGI (SK-MEL-28 melanoma): 31.1 µM | GI50 (MDA-MB-231 breast): 7.33 µM | TGI (MDA-MB-231 breast): 22.3 µM | GI50 (NCI/ADR-RES ovarian): 14 µM | TGI (NCI/ADR-RES ovarian): 86.9 µM | GI50 (HOP-92 NSCLC): 11.4 µM | TGI (HOP-92 NSCLC): 33.4 µM | GI50 (SNB-19 CNS): 23.8 µM | TGI (SNB-19 CNS): > 100 µM | GI50 (T-47D breast): 9.48 µM | TGI (T-47D breast): 67.4 µM | GI50 (SF-539 CNS): 15.2 µM | TGI (SF-539 CNS): 30.1 µM | GI50 (RPMI-8226 leukemia): 12.4 µM | TGI (RPMI-8226 leukemia): > 100 µM | GI50 (HT29 colon): 18.7 µM | TGI (HT29 colon): > 100 µM | GI50 (HCT-15 colon): 23.1 µM | TGI (HCT-15 colon): > 100 µM | GI50 (CCRF-CEM leukemia): 24.3 µM | TGI (CCRF-CEM leukemia): > 100 µM | GI50 (SR leukemia): 24 µM | TGI (SR leukemia): > 100 µM | GI50 (NCI-H226 lung): 10.8 µM | TGI (NCI-H226 lung): 25.8 µM | GI50 (BT-549 breast): 15.4 µM | TGI (BT-549 breast): 30 µM | GI50 (LOX IMVI melanoma): 10.1 µM | TGI (LOX IMVI melanoma): 23.5 µM | GI50 (KM12 colon): 19.4 µM | TGI (KM12 colon): 78.1 µM | GI50 (MDA-MB-435): 12.5 µM | TGI (MDA-MB-435): 31.3 µM | GI50 (SW-620 colon): 21.8 µM | TGI (SW-620 colon): > 100 µM | GI50 (M14 melanoma): 12.2 µM | TGI (M14 melanoma): 34 µM | GI50 (PC-3 prostate): 5.67 µM | TGI (PC-3 prostate): > 100 µM | GI50 (MOLT-4 leukemia): 10.4 µM | TGI (MOLT-4 leukemia): > 100 µM | GI50 (RXF 393 renal): 13.5 µM | TGI (RXF 393 renal): 31.4 µM | GI50 (ACHN renal): 20.3 µM | TGI (ACHN renal): 92.2 µM | GI50 (SF-268 CNS): 16.8 µM | TGI (SF-268 CNS): > 100 µM | GI50 (UO-31 renal): 10.2 µM | TGI (UO-31 renal): 69.1 µM | GI50 (MDA-MB-468 breast): 9.95 µM | TGI (MDA-MB-468 breast): 35.5 µM | GI50 (TK-10 renal): 34.4 µM | TGI (TK-10 renal): > 100 µM | GI50 (OVCAR-8 ovarian): 24.6 µM | TGI (OVCAR-8 ovarian): > 100 µM | GI50 (A498 renal): 15.7 µM | TGI (A498 renal): 34.6 µM | GI50 (U251 CNS): 15.6 µM | TGI (U251 CNS): 35.6 µM | GI50 (CAKI-1 renal): 7.25 µM | TGI (CAKI-1 renal): > 100 µM | GI50 (HS 578T breast): 12.7 µM | TGI (HS 578T breast): 42 µM | GI50 (OVCAR-4 ovarian): 14.7 µM | TGI (OVCAR-4 ovarian): 85 µM | GI50 (UACC-62 melanoma): 6.4 µM | TGI (UACC-62 melanoma): 21.4 µM | GI50 (DU-145 prostate): 29.2 µM | TGI (DU-145 prostate): > 100 µM | GI50 (A549 NSCLC): 14.7 µM | TGI (A549 NSCLC): > 100 µM | GI50 (K-562 leukemia): 17.3 µM | TGI (K-562 leukemia): > 100 µM | GI50 (COLO 205 colon): 14.9 µM | TGI (COLO 205 colon): 30.7 µM | GI50 (HCT-116 colon): 6.64 µM | TGI (HCT-116 colon): 26.3 µM
